According to article PMC5703532, “Establishment of an indirect ELISA for detection of the novel antifibrotic peptide M10” (PLoS ONE, 2017):
Peptide text beside a SMILES is read from it.

Experiments:
[1] = in vivo, ip, 1 mg/kg
Protocol: (§2) Mice (n = 30), C57BL/6 males and females 8–10 weeks old weighing 20–25 g, purchased from Jackson Laboratories (Bar Harbor, ME) were used in this study. Mice were housed in ventilated racks in specific pathogen free conditions and were provided with food and water available ad libitum. M10 peptide was solubilized in water and administered intraperitoneally in a dose of 1 mg/kg. Mice were sacrificed by isoflurane overdose, and blood samples were collected by cardiac puncture in the presence of 0.01% of Na-Citrate at time intervals of 15 min, 30 min, 1, 2, 4, 6, 12, 24, and 48 hours after injection. The blood samples (n = 3/group) were centrifuged at 2500 rpm for 10 min, and plasma samples were stored at -80°C. Plasma samples collected from mice injected with water intraperitoneally (n = 3) were used as a negative control.
(§3) M10 concentration was measured by indirect ELISA developed in our laboratory. Known concentrations of pharmaceutical grade M10 peptide (GenScript, Piscataway, NJ) with purity more than 98% were used to generate the standard curve. Briefly, 100μl of known concentration of M10 (range: 10 ng/ml to 500 ng/ml), blank (PBS without M10), and 100μl of the diluted plasma sample were plated in triplicate in high-affinity polystyrene micro-titer plates. Samples were incubated with gentle rocking overnight at 4°C and blocked with 5% bovine serum albumin in PBS. After washing, samples were incubated for 2 hours at room temperature with anti-cMET rabbit antibody (Santa Cruz Biotechnology, Santa Cruz, CA), followed by 1hour incubation with HRP-conjugated anti-Rabbit IgG (Rockland, Limerick, PA). M10 was detected with ultra-TMB (3, 3’, 5, 5’-tetramethylbenzidine)-substrate, and the reaction was terminated by using 2M sulfuric acid. Absorbance was measured at 450 nm by Spectra Max Plus spectrophotometer. Concentrations of unknown samples were then calculated from their corresponding optical density (OD) values by Softmax Pro 4.8 software (Molecular Devices, Sunnyvale, CA) using the standard curve generated from the known concentrations of M10. Control plasma samples collected from mice with intraperitoneal water injection were run in triplicate with each experiment, mean was calculated, and samples were normalized by subtracting the negative control mean value. Final concentrations were calculated by adjusting the sample dilution factor.
(§4) To obtain the pharmacokinetic profile of M10 in mouse plasma, C57Bl6 mice were injected intraperitoneally with M10 at a dose of 1mg/kg of body weight. Plasma samples were collected by cardiac puncture in the presence of 0.01% of Na-Citrate at time intervals of 15 min, 30 min, 1h, 2h, 4h, 6h, 12 h, 24 h, and 48 h following injection. Samples were diluted in PBS in order to fit within the range of the standard curves and then tested using the M10 ELISA. Concentration of M10 in plasma samples was calculated by Softmax Pro 4.8 software using the standard curve generated from the known concentration of M10. The samples were normalized by subtracting the negative controls represented by plasma samples obtained from mice injected with H2O.

Smad2 = settings: cited from earlier work
Excerpt: (§1) We recently discovered a 10 amino acid antifibrotic peptide (M10) with antifibrotic properties in vitro and in a murine model of lung fibrosis, which is a natural cleavage product by caspase-3 of the cytoplasmic tail of the c-MET receptor tyrosine kinase. Following binding of hepatocyte growth factor (HGF), c-MET undergoes auto phosphorylation at tyrosine residues in its cytoplasmic domain and initiates a cascade of signal transduction events leading to specific cellular responses implicated in embryonic development and tissue regeneration after injury.

[2] = test system: bleomycin-induced mouse model of lung fibrosis; settings: cited from earlier work
Excerpt: as §1

[3] = test system: human lung and skin fibroblasts; settings: cited from earlier work
Excerpt: as §1

in vivo = settings: both, C57BL/6, mouse, ip, 1 mg/kg
Protocol: as §2, §3, §4

[4] = test system: caspases, thrombin, factor Xa, trypsin and granzyme B; settings: cited from earlier work
[5] = Mean M10 concentration in plasma

Mean M10 concentration in plasma ([1]; both, C57BL/6, mouse, 24 h): 1216 ng/mL
Cmax (peak plasma concentration) ([1]; mouse): 4861.5 ± 11.5 ng/mL
Time by which plasma concentration declined to minimal (detectable) levels ([1]; mouse): ≤ 48 h
AUC(0-t) (in vivo): 72500 ± 2390 ng·h/mL
Tmax (in vivo): 6 h
half-life (in vivo): 6.8 ± 0.7 h
level at 4 h (in vivo; [5]): 3590 ng/mL
level at 6 h (in vivo; [5]): 4550 ng/mL
level at 12 h (in vivo; [5]): 3140 ng/mL
level at 24 h (in vivo; [5]): 801 ng/mL
level at 48 h (in vivo; [5]): 366 ng/mL
SMILES: C[C@H](NC(=O)[C@@H]1CCCN1C(=O)[C@H](CCCNC(=N)N)NC(=O)[C@@H](N)[C@@H](C)O)C(=O)N[C@@H](CO)C(=O)N[C@@H](Cc1ccccc1)C(=O)N[C@@H](Cc1c[nH]c2ccccc12)C(=O)N[C@@H](CCC(=O)O)C(=O)N[C@H](C(=O)N[C@@H](CO)C(=O)O)[C@@H](C)O [M10] (H-TRPASFWETS-OH; N-terminus and C-terminus assumed)
Interaction with Smad2 (Smad2): interacts with Smad2
Effect on collagen [2]: reduces collagen
Effect on collagen [3]: reduces collagen
Resistance to mammalian proteases [4]: resistance to many mammalian proteases
